One compound from patent US20140005070A1, “MARKERS ASSOCIATED WITH CYCLIN-DEPENDENT KINASE INHIBITORS” (Novartis AG, priority 2011, published 2014) can be followed below.

The subject of the experiment is PD markers MEPCE, MCL, MYC, HEXIM, LARP7 and WHSC2. Kind of experiment: Affymetrix U133-Plus-2 microarray gene expression profiling of CDKI treated cell lines. It counts as cell-based. As to conditions: A375 cells, FIG. 2. As to the method: Five cell lines were analyzed: NCI-H929, a multiple myeloma cell line (ATCC Cat. # CRL-9068); NCI-H441, a lung papillary adenocarcinoma cell line (ATCC Cat. # HTB-174); A375, a melanoma cell line (ATCC Cat. # CRL-1619); A2058, a melanoma cell line (ATCC Cat. #CRL-1147) and U-87-MG, a glioblastoma cell line (ATCC Cat. #HTB-14). Cell lines were grown in the medium recommended by ATCC and treated as follows:
NCI-H441 and A375: 0 timepoint: Untreated, harvested when compound is added to the other plates.
2 hours: DMSO, 200 nM CKDI(8) or 500 nM CKDI(8) or 500 nM CKDI(7) (3 plates each, total 12 plates).
8 hours: DMSO, 200 nM CKDI(8) or 500 nM CKDI (8) or 500 nM CKDI(7) (3 plates each, total 12 plates).
16 hours: DMSO, 200 nM CKDI(8) or 500 nM CKDI(8) or 500 nM CKDI(7) (3 plates each, total 12 plates). […]
An average expression level was determined for each probeset at each time-point and treatment condition by computing the geomean expression level across replicate tumors. […] The p-value was determined by a two-tailed t-test assuming unequal variances (Satterwaithe's approximation). […]
This is shown in FIG. 2, where A375 cells that are sensitive to CDKI were treated with CDKI(7) and the reduction of gene expression was determined at 2, 8 and 16 hours of treatment.

Consider `O=C(Nc1cc(-c2cccc(NCC3CCOCC3)n2)c(Cl)cn1)[C@@H]1CCCNC1` [CDKI(7)], for which the “expression of the PD markers MEPCE, MCL, MYC, HEXIM, LARP7 and WHSC2” value (microarray, 2, 8 and 16 hours of treatment) is on record as “reduced”. The “time point of greatest amount of reduction of MEPCE expression” value (microarray) was found to be 8 h.
